Source: patent US5561131A, “Defaunation method” (Mallinckrodt Veterinary, Inc., priority 1991, dated 1996)

Tested on: mice
Test: Mouse safety assessment
Format: in vivo
Settings: oral gavage, 830, 415 and 217 mg/kg, observed for 2 days
Experimental: Compounds of Table 1 chosen for testing in sheep were first tested in mice for signs of toxicity. Because sheep are approximately 5 times more sensitive than mice to compounds dosed orally, the dose rates applied to mice were 5 times greater than the target dose rate of 500 ppm. in rumen liquor (83 mg/kg live weight) used for sheep. Each compound was screened at three different dose levels, high (830 mg/kg), medium (415 mg/kg) and low (217 mg/kg).
252 mg of compound was used for dilution into a high medium and low dose rate. 252 mg of compound was mixed with 3 ml of G1284 solution (4% w/v ethoxylated castor oil and 0.05% w/v simethicone), to form the high dose composition. The medium dose composition was formed by diluting 1.5 ml of the high dose with 1.5 ml of G1284 solution. The low dose composition was formed by diluting 1.5 ml of the medium dose with 1.5 ml of G1284 solution. Before the high dose could be diluted it was first manually ball milled in an effort to produce a fine suspension of the compound.
All mice were weighed before dosing to calculate the appropriate dose rate. The calculation for dose rate was: [formula]
Each mouse was dosed using the Gavage method. With this method the mouse is dosed orally by way of an angled hypodermic needle (18 g) with a smooth spherical end. It is gently placed down the esophagus. All care must be taken not to force the needle and injure the esophagus or dose into the lungs.
Observations were made at 10, 30, 60 and 120 minutes after dosing, then every 1 or 2 hours for the first 6 hours.
Mice were usually observed for 2 days.
Typically, few compounds fell within the poor classification. The majority of compounds tested were either in the fair or good classification.

For `Cc1ccc(Nc2nc(Cl)nc(Cl)n2)cc1Cl` [Compound 27, 2,4 dichloro-6-(3 chloro-4-methylanilino)-s-triazine], the “Mouse Safety Assessment” value was “Fair (>2 mice sick)”.
